The values below are quoted from earlier work in patent US20120148541A1, “COMPOSITIONS AND METHODS TO GENERATE PILOSEBACEOUS UNITS” (priority 2010, published 2012).

The conditions of data set [1]: DMSO.
The conditions of data set [2]: in published reports.

As for `c1cc(-c2cnn3cc(-c4ccc(OCCN5CCCCC5)cc4)cnc23)ccn1` [Dorsomorphin, dorsomorphin], the solubility result in data set [1] is “soluble in DMSO”. The toxicity entry in data set [2] is “low toxicity”.
